According to patent US9242991B2, “Substituted fused heterocycles as c-Met tyrosine kinase inhibitors” (BETTA PHARMACEUTICALS CO., LTD, priority 2010, dated 2016):
“And” between values parts separate entries of the source, which are not always exact repeats. Identical values can stand only once.

Target: T1, c-Met phosphorylation (pY1349) in NCI-H460 cells (Homo sapiens, UniProt P08581)
T1 construct: host or cells: NCI-H460
Experiment: HGF Stimulated Met (pY1349) NCI-H460 Cell-based ELISA
Settings: 0.2 μM compound; for Mean of Activity (% Control): mean of replicates; for Counts / Activity (% Control): single replicates; for Activity (% Control): 0.2 µM
Experimental: HGF Stimulated Met (pY1349) NCI-H460 Cell-based ELISA NCI-H460 cells (purchased from ATCC) are cultured in RPMI 1640 media (Invitrogen) supplemented with 10% Fetal Bovine Scrum (FBS) and plated (prior to becoming 70% confluent) in 96-well flat-bottom plates at a density of 20,000 cells per well in 80 μL volume. The cells are then incubated overnight in a cell culture incubator (5% CO2, 95% Relative Humidity (RH) and 37° C.) and allowed to attach to the plate. The following morning the cells are washed with 2 volumes of a Reduced Serum Media (RSM) (RPMI 1640 media supplemented with 0.5% FBS). After removal of the last wash, 80 µL of RSM is added to each well of the cell plates. The cell plates are incubated for 2.5 hours in a cell culture incubator, and then dosed with compounds. Compound inhibitors are first solubilized at 10 mM in 100% DMSO and then diluted to 100 μM with 2% DMSO RSM. Subsequently compound serial dilutions (1:3) are prepared over a 100 μM to 0.005 μM range. Cells are dosed with the addition of 20 μL of compound stock to produce a final DMSO concentration of 0.4% and a final compound concentration dose range between 20 and 0.001 μM. After dosing with compounds the cells plates are gently agitated to mix and then allowed to incubate for 30 min in a cell culture incubator. After dose completion, the cells are stimulated with the addition of 20 μL per well of Hepatocyte Growth Factor (HGF) at a final concentration of 100 ng/mL in RSM (all wells except MIN wells are stimulated, MIN wells are dosed with 20 μL RSM). After 10 min incubation in a cell culture incubator, the liquid is removed from the cell plate wells, and the cells are lysed by the addition of 50 μL of ice-cold Meso Scale Discovery® (MSD, Gaithersburg, Md.) IX Lysis Buffer (150 mM NaCl, 20 mM Tris, pH7.5, 1 mM EDTA, 1 mM ethylene glycol tetraacetic acid, and 1% TRITON® X-100) supplemented with Phosphatase I and II and Protease inhibitors (Sigma, St. Louis, Mo.). After lysis at RT for 30 min the lysates are transferred to and captured on a MSD® Multi-Spot 96-well. 4-spot PhosphoMet plate that is BSA-blocked (at 30 mg/mL Block A in IX Tris Wash Buffer) and then washed one time with Tris Wash Buffer. After 2 hours capture (at RT) the lysates are removed from the MSD® plate and the plate is washed with IX Tris Wash Buffer. After blotting, 25 μL of 5 nM Sulfo-Tag Anti-Total Met antibody (detection antibody, MSD® prepared in IX Tris Wash Buffer supplemented with 10 mg/mL BSA and 0.1% Blocker D-R (MSD®)) is added to the wells of the MSD® plate. After 1 hour capture (at RT) the MSD® plate wells are washed with IX Tris Wash Buffer, and then 150 μL of IX Read Buffer T (with surfactant, MSD®) is added. Immediately after the addition of the Read Buffer, the plates are analyzed with a SECTOR 6000 MSD® Imager plate reader. Relative IC50 values are determined using MSD activity units by calculating percent inhibition with respect to on-plate “MIN” and “MAX” controls and then fitting the percent inhibition values and ten-point dose response data to a four-parameter logistic equation. This assay has a Minimum Significant Ratio (MSR) of 2.06.

T1 sequence (P08581 25-1390): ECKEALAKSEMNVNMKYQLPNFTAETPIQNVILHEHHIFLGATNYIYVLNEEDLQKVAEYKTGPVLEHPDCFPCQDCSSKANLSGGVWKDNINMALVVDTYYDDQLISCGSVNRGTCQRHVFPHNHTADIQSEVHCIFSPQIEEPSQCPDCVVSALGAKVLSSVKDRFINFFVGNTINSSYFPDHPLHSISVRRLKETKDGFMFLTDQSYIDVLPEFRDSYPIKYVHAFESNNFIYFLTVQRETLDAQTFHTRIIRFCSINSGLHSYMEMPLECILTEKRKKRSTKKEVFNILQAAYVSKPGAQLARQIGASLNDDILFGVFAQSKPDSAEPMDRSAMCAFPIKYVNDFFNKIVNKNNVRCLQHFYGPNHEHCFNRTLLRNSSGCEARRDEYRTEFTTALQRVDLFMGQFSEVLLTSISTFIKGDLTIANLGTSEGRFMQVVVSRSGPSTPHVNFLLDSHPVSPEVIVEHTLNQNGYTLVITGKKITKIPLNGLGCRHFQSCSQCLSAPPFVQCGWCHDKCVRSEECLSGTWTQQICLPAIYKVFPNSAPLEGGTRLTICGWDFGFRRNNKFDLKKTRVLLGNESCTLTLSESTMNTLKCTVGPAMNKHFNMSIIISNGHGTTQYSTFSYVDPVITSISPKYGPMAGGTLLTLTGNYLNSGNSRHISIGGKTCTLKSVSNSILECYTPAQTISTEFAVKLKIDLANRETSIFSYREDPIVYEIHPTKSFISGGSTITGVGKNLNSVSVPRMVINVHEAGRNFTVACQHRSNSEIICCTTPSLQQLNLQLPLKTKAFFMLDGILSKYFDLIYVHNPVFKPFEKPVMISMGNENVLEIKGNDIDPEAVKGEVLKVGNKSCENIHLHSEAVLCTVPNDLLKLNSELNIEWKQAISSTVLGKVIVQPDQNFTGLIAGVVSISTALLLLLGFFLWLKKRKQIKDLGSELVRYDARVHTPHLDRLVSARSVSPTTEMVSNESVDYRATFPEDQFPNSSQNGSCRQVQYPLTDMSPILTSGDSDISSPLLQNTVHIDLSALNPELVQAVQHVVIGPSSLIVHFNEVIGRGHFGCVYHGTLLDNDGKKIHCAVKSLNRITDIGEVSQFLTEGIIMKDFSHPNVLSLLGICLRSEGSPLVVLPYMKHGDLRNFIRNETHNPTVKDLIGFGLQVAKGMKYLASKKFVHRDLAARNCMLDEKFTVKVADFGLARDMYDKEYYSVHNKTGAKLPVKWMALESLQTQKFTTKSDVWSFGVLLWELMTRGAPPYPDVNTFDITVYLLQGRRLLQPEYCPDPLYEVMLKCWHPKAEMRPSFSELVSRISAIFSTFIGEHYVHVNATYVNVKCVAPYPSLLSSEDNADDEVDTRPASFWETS

SMILES | Mean (Counts − Blanks) | Mean of Activity (% Control) | Counts | Activity (% Control)
Cn1c(Nc2ccccc2)ncc(-c2ccc(Oc3ccnc4cc5c(cc34)OCCOCCOCCOCCOCCO5)cn2)c1=O [Example 31, 5-[5-(2,5,8,11,14,17-Hexaoxa-21-aza-tricyclo[16.8.0.020,25]hexacosa-1(18), 19,21,23,25-pentaen-24-yloxy)-pyridin-2-yl]-3-methyl-2-phenylamino-3 H-pyrimidin-4-one] | 17936 | 37 | 20248 and 17427 | 43 % Control and 31 % Control
Cn1c(Nc2ccc(F)cc2)ncc(-c2ccc(Oc3ncnc4cc5c(cc34)OCCOCCOCCO5)cn2)c1=O [Example 6, 2-(4-Fluoro-phenylamino)-5-[5-(7,8,10,11,13,14-hexahydro-6,9,12,15-tetraoxa-1,3-diaza-cyclododeca[b]naphthalen-4-yloxy)-pyridin-2-yl]-3-methyl-3H-pyrimidin-4-one] | 29068 | 25 | 30847 and 29093 | 29 % Control and 21 % Control
CN1CCOc2cc3ncnc(Oc4ccc(-c5cnc(Nc6ccc(F)cc6)n(C)c5=O)nc4)c3cc2OCC1 [Example 21, 2-(4-Fluoro-phenylamino)-3-methyl-5-[5-(9-methyl-8,9,10,11-tetrahydro-7H-6,12-dioxa-1,3,9-triaza-cyclonona[b]naphthalen-4-yloxy)-pyridin-2-yl]-3H-pyrimidin-4-one] | 29384 | 27 | 31741 and 28830 | 33 % Control and 20 % Control
Cn1c(Nc2ccc(F)cc2)ncc(-c2ccc(Oc3ncnc4cc5c(cc34)OCCCO5)cn2)c1=O [Example 20, 5-[5-(8,9-Dihydro-7H-6,10-dioxa-1,3-diaza-cyclohepta[b]naphthalen-4-yloxy)-pyridin-2-yl]-2-(4-fluoro-phenylamino)-3-methyl-3H-pyrimidin-4-one] | 32073 | 39 | 34234 and 31716 | 44 % Control and 33 % Control
O=C(Nc1ccc(Oc2ccnc3cc4c(cc23)OCCOCCOCCO4)c(F)c1)c1cccn(-c2ccc(F)cc2)c1=O [Example 11, 1-(4-Fluoro-phenyl)-2-oxo-1,2-dihydro-pyridine-3-carboxylic acid [3-fluoro-4-(7,8,10,11,13,14-hexahydro-6,9,12,15-tetraoxa-1-aza-cyclododeca[b]naphthalen-4-yloxy)-phenyl]-amide] | 31407 | 35 | 32582 and 32035 | 36 % Control and 34 % Control
Cn1c(Nc2ccc(F)cc2)ncc(-c2ccc(Oc3ncnc4cc5c(cc34)OC(F)(F)O5)cn2)c1=O [Example 8, 5-[5-(2,2-Difluoro-[1,3]dioxolo[4,5-g]quinazolin-8-yloxy)-pyridin-2-yl]-2-(4-fluoro-phenylamino)-3-methyl-3H-pyrimidin-4-one] | 28728 | 24 | 30429 and 28830 | 27 % Control and 20 % Control
Cn1c(Nc2ccccc2)ncc(-c2ccc(Oc3ccnc4cc5c(cc34)OC(F)(F)O5)cn2)c1=O [Example 28, 5-[5-(2,2-Difluoro-[1,3]dioxolo[4,5-g]quinolin-8-yloxy)-pyridin-2-yl]-2-(phenylamino)-3-methyl-3H-pyrimidin-4-one] | 30 | 1 | 1070 and 793 | 1 % Control and 0 % Control
